Reference: US11173160B2 (UNIVERSITY OF PITTSBURGH—OF THE COMMONWEALTH SYSTEM OF …, priority 2019, dated 2021)
Entries after “also recorded” stand apart in the source; their conditions may differ.

How the values were obtained:
PRAK = PRAK (Homo sapiens, UniProt Q8IW41); details: cited from earlier work
TTK = TTK (Homo sapiens, UniProt P33981); details: cited from earlier work
SF8628 = experiment: IC50 of two forms of TG02 in DIPG cell lines in vitro; format: cell-based, human; details: SF8628 cell line; listed as TG02 obtained from Adastra Pharmaceuticals
Experimental: (§1) Direct cell counts were performed using the Countess II FL Automated Cell Counter (ThermoFisher Scientific). Alamar blue viability (ThermoFisher Scientific) and the 5-bromo-2′-deoxyuridine (BrdU) incorporated cell proliferation assay (Cell Signaling Technology Cat #6813) were performed using the manufacturer's standard protocol. EC50 curve analysis was performed using raw fluorescent Alamar blue values that were inputted into PRISM 7.0. Drug concentrations were log 10 transformed and values normalized to percent viability with respect to vehicle treated cells. EC50 values were interpolated from a log inhibitor vs. normalized response with variable slope using a least square fit model.

DIPG007 = experiment: as above; format: cell-based, human; details: DIPG007 cell line; listed as TG02 obtained from Adastra Pharmaceuticals
Experimental: as §1

DIPG13p = experiment: as above; format: cell-based, human; details: DIPG13p cell line; listed as TG02 obtained from Adastra Pharmaceuticals
Experimental: as §1

DIPG4 = experiment: as above; format: cell-based, human; details: DIPG4 cell line; listed as TG02 obtained from Adastra Pharmaceuticals
Experimental: as §1

Chk1 = Chk1 (Homo sapiens, UniProt O14757); details: cited from earlier work
Chk1, sequence (O14757 whole entry): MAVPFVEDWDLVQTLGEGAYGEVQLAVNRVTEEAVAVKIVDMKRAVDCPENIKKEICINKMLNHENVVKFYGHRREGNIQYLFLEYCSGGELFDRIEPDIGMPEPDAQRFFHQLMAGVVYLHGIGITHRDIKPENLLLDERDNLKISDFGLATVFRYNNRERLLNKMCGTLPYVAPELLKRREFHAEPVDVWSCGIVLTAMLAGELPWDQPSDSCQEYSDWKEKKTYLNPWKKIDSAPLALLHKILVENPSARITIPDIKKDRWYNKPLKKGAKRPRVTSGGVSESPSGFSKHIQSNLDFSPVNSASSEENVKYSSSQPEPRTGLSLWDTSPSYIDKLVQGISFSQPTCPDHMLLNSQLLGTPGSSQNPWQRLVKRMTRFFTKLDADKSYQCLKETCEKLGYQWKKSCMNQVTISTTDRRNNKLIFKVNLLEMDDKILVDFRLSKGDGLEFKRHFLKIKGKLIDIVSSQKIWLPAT

Pim-3 = Pim-3 (Homo sapiens, UniProt Q86V86); details: cited from earlier work
[1] = tested on: ERK5 auto-phosphorylation and cleaved PARP in tumor; experiment: western blot of tumor lysates from treated mice; format: in vivo; details: mice sacrificed after 5 days of treatment with TG02
Experimental: Total ERK5 was used as a loading control.
All animal procedures were carried out ethically according to animal user protocols approved by Institutional Animal Care Committee (IACUC). 4-6 week-old non-obese diabetic severe combined immune deficiency male or female mice (NOD-SCID-Prkdc^scid) were injected with 1×10^5 SU-DIPG-13p cells or 1×10^5 SF8628 DIPG cells. Cells were re-suspended in 2 μl of PBS and injected into the pons/midbrain using a stereotactic frame (Stoelting) and automated cell injector (Stoelting) with cells delivered over 4 minutes. Coordinates were as follows from the Lambda suture (x=0.8 mm, y=−0.8 mm, z=−5.0 mm). […]

CYP1A2 = CYP1A2 (Homo sapiens, UniProt P05177); details: cited from earlier work
CYP1A2, sequence (P05177 whole entry): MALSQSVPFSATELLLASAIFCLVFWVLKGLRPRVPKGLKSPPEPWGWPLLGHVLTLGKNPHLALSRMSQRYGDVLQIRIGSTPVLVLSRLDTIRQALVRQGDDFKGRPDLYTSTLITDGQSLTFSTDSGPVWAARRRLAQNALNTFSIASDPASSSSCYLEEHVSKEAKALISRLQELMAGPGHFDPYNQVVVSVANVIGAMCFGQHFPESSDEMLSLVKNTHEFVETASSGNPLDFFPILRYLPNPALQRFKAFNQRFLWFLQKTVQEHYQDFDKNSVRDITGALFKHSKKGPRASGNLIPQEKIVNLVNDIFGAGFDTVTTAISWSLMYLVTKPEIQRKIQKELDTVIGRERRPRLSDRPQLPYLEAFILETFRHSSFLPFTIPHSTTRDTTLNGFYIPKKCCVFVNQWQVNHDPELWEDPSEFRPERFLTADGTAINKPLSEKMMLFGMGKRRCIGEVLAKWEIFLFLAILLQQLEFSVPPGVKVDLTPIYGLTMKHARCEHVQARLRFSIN

Kit = Kit (Homo sapiens, UniProt P10721); details: cited from earlier work
FAK = FAK (Homo sapiens, UniProt Q05397); details: cited from earlier work
FAK, sequence (Q05397 whole entry): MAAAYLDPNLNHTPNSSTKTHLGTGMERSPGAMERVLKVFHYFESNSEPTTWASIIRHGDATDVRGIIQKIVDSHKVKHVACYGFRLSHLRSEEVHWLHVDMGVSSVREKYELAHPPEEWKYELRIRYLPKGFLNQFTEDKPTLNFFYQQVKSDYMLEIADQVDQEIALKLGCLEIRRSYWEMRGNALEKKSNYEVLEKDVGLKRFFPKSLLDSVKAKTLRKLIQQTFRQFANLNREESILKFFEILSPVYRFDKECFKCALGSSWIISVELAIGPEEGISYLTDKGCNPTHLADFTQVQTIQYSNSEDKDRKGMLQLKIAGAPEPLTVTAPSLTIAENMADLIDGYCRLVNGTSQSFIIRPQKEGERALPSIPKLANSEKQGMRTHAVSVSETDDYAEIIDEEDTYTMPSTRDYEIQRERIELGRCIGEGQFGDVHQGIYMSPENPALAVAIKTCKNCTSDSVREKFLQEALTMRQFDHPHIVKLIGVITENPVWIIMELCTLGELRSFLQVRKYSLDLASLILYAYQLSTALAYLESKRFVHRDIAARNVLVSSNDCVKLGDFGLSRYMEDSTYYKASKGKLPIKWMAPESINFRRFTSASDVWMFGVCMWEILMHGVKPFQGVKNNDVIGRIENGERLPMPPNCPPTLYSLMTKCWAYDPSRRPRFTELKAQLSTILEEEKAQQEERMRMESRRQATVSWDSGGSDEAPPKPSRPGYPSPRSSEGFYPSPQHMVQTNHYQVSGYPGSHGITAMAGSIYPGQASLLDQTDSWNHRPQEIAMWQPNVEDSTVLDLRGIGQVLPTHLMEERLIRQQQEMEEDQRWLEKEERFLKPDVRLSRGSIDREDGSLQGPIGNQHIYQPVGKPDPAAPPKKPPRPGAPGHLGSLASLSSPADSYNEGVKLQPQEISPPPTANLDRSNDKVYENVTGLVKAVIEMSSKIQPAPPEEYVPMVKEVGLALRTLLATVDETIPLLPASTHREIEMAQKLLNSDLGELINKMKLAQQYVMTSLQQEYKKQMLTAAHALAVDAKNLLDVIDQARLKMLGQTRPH

[2] = tested on: SF8628 intracranial xenografts; experiment: SF8628 orthotopic xenograft model; format: in vivo, mice; details: for KI-67 staining (proliferation marker): 20 mg/kg, vs vehicle
Experimental: All animal procedures were carried out ethically according to animal user protocols approved by Institutional Animal Care Committee (IACUC). 4-6 week-old non-obese diabetic severe combined immune deficiency male or female mice (NOD-SCID-Prkdc^scid) were injected with 1×10^5 SU-DIPG-13p cells or 1×10^5 SF8628 DIPG cells. Cells were re-suspended in 2 μl of PBS and injected into the pons/midbrain using a stereotactic frame (Stoelting) and automated cell injector (Stoelting) with cells delivered over 4 minutes. Coordinates were as follows from the Lambda suture (x=0.8 mm, y=−0.8 mm, z=−5.0 mm). […] Mice were treated for two cycles (5 days on, with two days off per cycle). Mice were sacrificed at sign of neurological duress and brains were extracted and fixed in 4% PFA.
Also, the present disclosure used two established cell lines derived from transgenic mouse models of DIPG. Both lines are p53 null and express PDGFB, differing only in their H3.3 mutation status.
In a first DIPG mouse model, NOD-SCID gamma mice were injected with 2×10^5 SF8628 cells in the midbrain.
For each cycle, the compounds were administered 20 mg/kg/day for 5 days, followed with 2 days of rest period. Each mice received 2 cycles of treatment.

[3] = tested on: DIPG-007, DIPG-IV, and SF8628 cells; experiment: direct Trypan-Blue automated cell count; format: cell-based, human; details: 50 nM of TG02, 9 days of treatment, vs vehicle
Experimental: FIGS. 5A-5K provide that pharmacological inhibition of ERK5 triggered cell death and apoptosis in DIPG cells. […] (5C-5E).
as §1

TLK2 = TLK2 (Homo sapiens, UniProt Q86UE8); details: cited from earlier work
TLK2, sequence (Q86UE8 whole entry, species assumed): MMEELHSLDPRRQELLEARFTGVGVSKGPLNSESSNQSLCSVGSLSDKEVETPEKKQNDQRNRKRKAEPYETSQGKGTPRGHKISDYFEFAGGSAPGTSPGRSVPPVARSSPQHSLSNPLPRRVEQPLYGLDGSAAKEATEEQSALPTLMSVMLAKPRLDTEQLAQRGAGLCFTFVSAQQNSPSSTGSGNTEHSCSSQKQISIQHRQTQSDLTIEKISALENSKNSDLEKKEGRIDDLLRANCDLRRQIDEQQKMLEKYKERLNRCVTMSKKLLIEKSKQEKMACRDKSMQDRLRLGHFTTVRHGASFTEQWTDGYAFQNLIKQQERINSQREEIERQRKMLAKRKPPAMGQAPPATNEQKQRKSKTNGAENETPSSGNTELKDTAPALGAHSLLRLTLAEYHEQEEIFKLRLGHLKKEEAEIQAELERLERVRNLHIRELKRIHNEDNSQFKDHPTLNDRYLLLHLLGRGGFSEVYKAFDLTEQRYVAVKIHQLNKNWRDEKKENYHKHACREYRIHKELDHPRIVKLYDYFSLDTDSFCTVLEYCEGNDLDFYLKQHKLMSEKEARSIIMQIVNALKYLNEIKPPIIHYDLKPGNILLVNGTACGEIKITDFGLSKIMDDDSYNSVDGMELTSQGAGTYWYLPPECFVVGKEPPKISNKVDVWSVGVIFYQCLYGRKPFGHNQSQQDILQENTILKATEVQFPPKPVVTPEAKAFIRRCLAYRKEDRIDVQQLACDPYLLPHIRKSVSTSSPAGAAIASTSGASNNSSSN

ALK = ALK (Homo sapiens, UniProt Q9UM73); details: cited from earlier work
[4] = cited from earlier work
ZAP-70 = ZAP-70 (Homo sapiens, UniProt P43403); details: cited from earlier work
ZAP-70, sequence (P43403 whole entry, species assumed): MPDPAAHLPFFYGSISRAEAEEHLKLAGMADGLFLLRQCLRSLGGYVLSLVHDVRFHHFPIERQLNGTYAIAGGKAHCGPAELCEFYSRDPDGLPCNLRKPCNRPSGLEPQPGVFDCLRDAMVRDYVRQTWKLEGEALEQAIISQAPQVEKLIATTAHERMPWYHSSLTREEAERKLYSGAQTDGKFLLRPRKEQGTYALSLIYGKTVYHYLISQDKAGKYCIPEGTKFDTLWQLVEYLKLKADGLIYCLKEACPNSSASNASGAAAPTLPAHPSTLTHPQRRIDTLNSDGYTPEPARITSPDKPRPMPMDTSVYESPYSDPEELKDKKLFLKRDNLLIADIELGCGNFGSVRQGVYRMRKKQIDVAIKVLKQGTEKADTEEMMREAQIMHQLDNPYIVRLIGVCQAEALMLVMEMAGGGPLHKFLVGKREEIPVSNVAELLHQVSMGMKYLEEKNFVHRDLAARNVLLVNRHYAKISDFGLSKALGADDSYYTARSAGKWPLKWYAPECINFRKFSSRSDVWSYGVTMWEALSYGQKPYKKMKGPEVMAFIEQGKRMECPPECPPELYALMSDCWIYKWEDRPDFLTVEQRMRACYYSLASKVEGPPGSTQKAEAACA

PDK1 = PDK1 (Homo sapiens, UniProt O15530); details: cited from earlier work
ERK5 = ERK5 (Homo sapiens, UniProt Q13164); experiment: in vitro kinase assay of purified recombinant ERK5 and MYC; format: biochemical; details: ERK5 and ATP, 30 minutes at 30° C.
Experimental: Purified active recombinant ERK5 protein was purchased from ThermoFisher Scientific (Cat #A32872) and purified recombinant MYC was purchased from Abcam (Cat #ab84132). Purified ERK5 and MYC were resuspended in 40 μl of 1× kinase buffer supplemented with […] ATP, 0.25 μg substrate, and 1.0 μg purified recombinant and active kinase. Samples were incubated in the presence or absence of an ERK5 inhibitor for 30 minutes at 30° C. The reaction was terminated with 20 μl 3×SDS sample buffer. Samples were then boiled at 100° C. for 5 minutes and then evaluated by western blotting using a phospho MYC ser62 antibody (1:1000). 1× Kinase Buffer recipe: 25 mM Tris (pH 7.5), 5 mM O-glycerophosphate, 2 mM DTT, 0.1 mM Na3VO4, 10 mM MgCl2.

TTK, sequence (P33981 whole entry, species assumed): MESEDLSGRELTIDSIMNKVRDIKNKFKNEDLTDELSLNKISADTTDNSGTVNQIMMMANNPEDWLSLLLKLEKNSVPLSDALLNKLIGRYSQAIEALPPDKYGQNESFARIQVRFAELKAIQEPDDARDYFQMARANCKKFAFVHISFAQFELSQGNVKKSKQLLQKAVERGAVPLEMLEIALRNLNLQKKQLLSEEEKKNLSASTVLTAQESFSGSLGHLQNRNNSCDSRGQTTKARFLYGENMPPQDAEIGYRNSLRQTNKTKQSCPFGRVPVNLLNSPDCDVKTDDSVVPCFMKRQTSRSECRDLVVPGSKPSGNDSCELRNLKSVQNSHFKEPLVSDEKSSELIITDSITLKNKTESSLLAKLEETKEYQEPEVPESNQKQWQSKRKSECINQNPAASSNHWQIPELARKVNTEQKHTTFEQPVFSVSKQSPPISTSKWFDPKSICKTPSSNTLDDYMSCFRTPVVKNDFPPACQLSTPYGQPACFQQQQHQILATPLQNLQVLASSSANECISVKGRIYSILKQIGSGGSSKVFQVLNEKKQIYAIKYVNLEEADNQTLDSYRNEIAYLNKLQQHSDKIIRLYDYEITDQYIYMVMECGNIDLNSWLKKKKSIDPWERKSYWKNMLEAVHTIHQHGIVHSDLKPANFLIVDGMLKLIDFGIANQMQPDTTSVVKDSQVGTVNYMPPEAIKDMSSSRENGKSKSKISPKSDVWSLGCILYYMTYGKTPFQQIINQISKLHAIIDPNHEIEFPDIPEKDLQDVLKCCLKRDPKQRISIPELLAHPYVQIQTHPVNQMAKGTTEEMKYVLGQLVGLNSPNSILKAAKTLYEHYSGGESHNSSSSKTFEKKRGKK

In the case of CN1C/C=C/CCOc2cccc(c2)-c2ccnc(n2)Nc2cccc(c2)C1 [TG02, (16E)-14-methyl-20-oxa-5,7,14,27-tetraazatetracyclo[19.3.1.12,6.18,12]heptacosa-1(25),2(27),3,5,8(26),9,11,16,21,23-decaene], the “inhibition at 100 nm” value (PRAK) is listed as “less than 50%”, the “inhibition at 100 nm” value (TTK) is listed as “less than 50%” and the IC50 (SF8628) is listed as 0.07 µM. For the same molecule, the IC50 (DIPG007) was 0.093 µM, the IC50 (DIPG13p) was 0.08 µM and the IC50 (DIPG4) was 0.06 µM. For the same molecule, the “inhibition at 100 nm” value (Chk1) was “less than 50%”, the “inhibition at 100 nm” value (Pim-3) was “less than 50%” and the “in vivo ERK5 auto-phosphorylation” value [1] was “inhibition of ERK5 auto-phosphorylation”. The “in vivo apoptosis by cleaved PARP” value [1] was “induction of apoptosis”, the “substrate of CYP1A2” value (CYP1A2) was “substrate” and the “inhibition at 100 nm” value (Kit) was “less than 50%”. The “inhibition at 100 nm” value (FAK) was “less than 50%”, the “KI-67 staining (proliferation marker)” value ([2]; 2 cycles) was “reduced KI-67 staining” and the “KI-67 staining (proliferation marker)” value ([2]; 2 cycles, listed as TG02 obtained from Adastra Pharmaceuticals) was “significantly reduced KI67 expression; also recorded: significantly reduced K167 expression”. For the same molecule, the survival vs vehicle ([2]; 20 mg/kg/day for 5 days, 2 days rest, 2 cycles) was “statistically significant increased median survival”, the median survival ([2]; TG02 20 mg/kg, 2 cycles of 5 days on 2 days off, vehicle 33 days) was 59 days and the “extension of median survival time” value ([2]; mice intracranially engrafted with DIPG cells) was “nearly two-fold”. For the same molecule, the cell number [3] was “significant decreases in cell number”, the “inhibition at 100 nm” value (TLK2) was “less than 50%” and the “inhibition at 100 nm” value (ALK) was “less than 50%”. For the same molecule, the “most common toxicities (≥20%)” value ([4]; adults with acute leukemia) was “nausea, vomiting, fatigue, abdominal pain, diarrhea, constipation, and hypophosphatemia”, the serious adverse events ([4]; adults with hematologic malignancies) was “nausea and vomiting (grades 2 and 3), fatigue (grade 3), altered mental status (grade 2), rash (grade 3), thrombocytopenia (grade 4), and neutropenic fever with sepsis (grade 3)” and the “maximum tolerated dose (MTD)” value ([4]; intermittent TG02 with fixed doses of carfilzomib, twice a week for 21 of 28 days) was 250 mg per dose. The “inhibition at 100 nm” value (ZAP-70) was “less than 50%”, the “inhibition at 100 nm” value (PDK1) was “less than 50%” and the “phosphorylation of MYC(S62) by ERK5” value (ERK5) was “inhibited”.
